Legend:
Aqueous Solubility Assay = conditions: PBS buffer pH 7.4; maximum upper limit 1,000 μM
Procedure: Assay 5: Aqueous Solubility Assay
The purpose of this assay was to quantify the solubility of test compounds in pH 4 and pH 7.4 PBS buffers. The assay required 40 μL of 10 mM DMSO test compound solution per desired buffer in addition to 20 μL required to make a test standard. For example, to test a compound in both buffers, 100 μL (2*40 μL+20 μL) of 10 mM DMSO compound stock solution was required.
The standard was created by diluting 20 μL of 10 mM DMSO compound stock solution into 180 μL of methanol and was shaken for five minutes to ensure solution uniformity. […] This 1,000 μM solution was run on an Agilent 1260 LC-MS system by injecting 2 μL in order to obtain the peak area. For the test solutions, 40 μL of 10 mM DMSO compound stock solution, per PBS buffer condition, were dried down into a powder overnight. Once in powder form, 400 μL of the desired PBS buffer was added to the powder and allowed to shake vigorously for four hours. The maximum theoretical concentration for this sample solution was 1,000 μM. After four hours of shaking, the samples were centrifuged for 10 minutes at 3,000 RPM before injecting 2 μL on the same Agilent 1260 LC-MS system to obtain the peak area.
In Table 6 below, A represents a value above 500, B represents a value between 250 and 500, C represents a value between 50 and 250, D represents a value between 10 and 50, and E represents a value below 10.

[1] = system: IL-2 stimulated pSTAT5 in Tall-1 T cells; test: Inhibition of IL-2 Stimulated pSTAT5 in Tall-1 T Cells; format: cell-based; conditions: Tall-1 human T cell line, IL-2 300 ng/mL, AlphaLisa
Summary of the method: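 Cells preincubated with compound 1 hour at 37° C, then stimulated with IL-2 (final 300 ng/mL) for 30 minutes. After lysis, pSTAT5 (Tyr694/699) read by AlphaLISA luminescence. IC50 from inhibition curves, reported as pIC50 (mean±SD).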

JAK1 = JAK1 (Homo sapiens (Human), UniProt P23458); test: Biochemical JAK and Tyk2 Kinase Assays (LanthaScreen), JAK1; conditions: 25 μM ATP (Km), pIC50 converted to pKi by Cheng-Prusoff
[2] = Human Liver Microsome Assay; conditions: human liver microsomes 0.1 mg/mL, 0.1 μM compound, 1 mM NADPH, 37° C.
Procedure: Assay 4: Human Liver Microsome Assay
The objective of this assay was to assess the metabolic stability of test compounds in an in vitro human liver sub-fraction. Human liver microsomes obtained from Bioreclamation-IVT (Baltimore, Md.) were thawed on ice and diluted into 0.1 M potassium phosphate buffer pH 7.4 to yield final incubation protein concentrations of 0.1 mg/mL. Test compounds (10 mM) were diluted into NADPH cofactor to yield final incubation concentrations of 0.1 μM test compound and 1 mM NADPH. Incubations were conducted at 37° C. temperature and test aliquots were taken at time points 0, 5, 8, 15, 30 and 45 minutes. Each aliquot was crashed into water with 3% formic acid and 1 μM internal standard. The resulting samples were injected onto an LC-MS/MS system for analysis.
For each incubation, the peak area of the analytes in each t0 aliquot was set to 100% and the peak areas from subsequent time point aliquots were converted to percentage of parent compound remaining relative to t0. The percentage of parent compound remaining was converted to natural log scale and plotted versus time in minutes. A linear regression analysis was performed for the initial decline of the parent disappearance profile and a formula for the best-fit line determined. The slope of the resultant line was normalized to protein concentration in mg/mL protein or number of cells/mL and CLint was calculated as follows for liver microsomes: CLint(μL·min^−1·mg^−1)=(Slope×1000)/[protein,mg/mL]
CLint values from 9-49 μl/min/mg represent moderate clearance (i.e. 30-70% of hepatic blood flow in human) and values >50 μl/min/mg represent high hepatic clearance (i.e. >70% of hepatic blood flow in human).

JAK2 = JAK2 (Homo sapiens (Human), UniProt O60674); test: Biochemical JAK and Tyk2 Kinase Assays (LanthaScreen), JAK2; conditions: 3 μM ATP (Km); pIC50 converted to pKi by Cheng-Prusoff
JAK3 = JAK3 (Homo sapiens (Human), UniProt P52333); test: Biochemical JAK and Tyk2 Kinase Assays (LanthaScreen), JAK3; conditions: 1.6 μM ATP (Km), pIC50 converted to pKi by Cheng-Prusoff
Chain of JAK3 (P52333 whole entry): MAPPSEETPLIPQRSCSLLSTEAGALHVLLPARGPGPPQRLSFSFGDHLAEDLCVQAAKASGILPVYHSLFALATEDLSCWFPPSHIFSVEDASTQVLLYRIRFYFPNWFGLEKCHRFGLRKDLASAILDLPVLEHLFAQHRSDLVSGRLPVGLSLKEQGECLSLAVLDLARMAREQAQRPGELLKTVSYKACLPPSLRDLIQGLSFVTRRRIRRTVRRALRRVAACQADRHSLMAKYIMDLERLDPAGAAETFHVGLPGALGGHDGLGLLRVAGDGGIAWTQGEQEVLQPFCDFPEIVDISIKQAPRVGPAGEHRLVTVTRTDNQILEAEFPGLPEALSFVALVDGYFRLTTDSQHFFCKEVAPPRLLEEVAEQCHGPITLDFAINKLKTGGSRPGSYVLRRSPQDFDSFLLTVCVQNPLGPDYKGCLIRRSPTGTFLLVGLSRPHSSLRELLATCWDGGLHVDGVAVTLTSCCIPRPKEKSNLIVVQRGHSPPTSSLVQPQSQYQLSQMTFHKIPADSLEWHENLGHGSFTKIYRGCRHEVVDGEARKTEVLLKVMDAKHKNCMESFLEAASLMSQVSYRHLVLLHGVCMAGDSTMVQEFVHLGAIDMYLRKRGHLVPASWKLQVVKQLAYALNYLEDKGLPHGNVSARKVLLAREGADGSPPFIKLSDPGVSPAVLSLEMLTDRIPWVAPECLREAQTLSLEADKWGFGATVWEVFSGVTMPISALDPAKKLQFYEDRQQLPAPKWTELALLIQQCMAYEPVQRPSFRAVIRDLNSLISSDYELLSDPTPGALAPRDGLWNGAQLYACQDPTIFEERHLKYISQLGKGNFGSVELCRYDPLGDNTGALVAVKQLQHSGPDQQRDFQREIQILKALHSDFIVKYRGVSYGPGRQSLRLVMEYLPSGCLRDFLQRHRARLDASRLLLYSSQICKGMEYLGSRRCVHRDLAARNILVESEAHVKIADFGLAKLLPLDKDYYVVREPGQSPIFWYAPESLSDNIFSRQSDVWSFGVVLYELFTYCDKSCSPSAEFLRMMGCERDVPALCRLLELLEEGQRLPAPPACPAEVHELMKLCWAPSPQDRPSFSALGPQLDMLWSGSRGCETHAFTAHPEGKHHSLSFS

Chain of JAK1 (P23458 whole entry): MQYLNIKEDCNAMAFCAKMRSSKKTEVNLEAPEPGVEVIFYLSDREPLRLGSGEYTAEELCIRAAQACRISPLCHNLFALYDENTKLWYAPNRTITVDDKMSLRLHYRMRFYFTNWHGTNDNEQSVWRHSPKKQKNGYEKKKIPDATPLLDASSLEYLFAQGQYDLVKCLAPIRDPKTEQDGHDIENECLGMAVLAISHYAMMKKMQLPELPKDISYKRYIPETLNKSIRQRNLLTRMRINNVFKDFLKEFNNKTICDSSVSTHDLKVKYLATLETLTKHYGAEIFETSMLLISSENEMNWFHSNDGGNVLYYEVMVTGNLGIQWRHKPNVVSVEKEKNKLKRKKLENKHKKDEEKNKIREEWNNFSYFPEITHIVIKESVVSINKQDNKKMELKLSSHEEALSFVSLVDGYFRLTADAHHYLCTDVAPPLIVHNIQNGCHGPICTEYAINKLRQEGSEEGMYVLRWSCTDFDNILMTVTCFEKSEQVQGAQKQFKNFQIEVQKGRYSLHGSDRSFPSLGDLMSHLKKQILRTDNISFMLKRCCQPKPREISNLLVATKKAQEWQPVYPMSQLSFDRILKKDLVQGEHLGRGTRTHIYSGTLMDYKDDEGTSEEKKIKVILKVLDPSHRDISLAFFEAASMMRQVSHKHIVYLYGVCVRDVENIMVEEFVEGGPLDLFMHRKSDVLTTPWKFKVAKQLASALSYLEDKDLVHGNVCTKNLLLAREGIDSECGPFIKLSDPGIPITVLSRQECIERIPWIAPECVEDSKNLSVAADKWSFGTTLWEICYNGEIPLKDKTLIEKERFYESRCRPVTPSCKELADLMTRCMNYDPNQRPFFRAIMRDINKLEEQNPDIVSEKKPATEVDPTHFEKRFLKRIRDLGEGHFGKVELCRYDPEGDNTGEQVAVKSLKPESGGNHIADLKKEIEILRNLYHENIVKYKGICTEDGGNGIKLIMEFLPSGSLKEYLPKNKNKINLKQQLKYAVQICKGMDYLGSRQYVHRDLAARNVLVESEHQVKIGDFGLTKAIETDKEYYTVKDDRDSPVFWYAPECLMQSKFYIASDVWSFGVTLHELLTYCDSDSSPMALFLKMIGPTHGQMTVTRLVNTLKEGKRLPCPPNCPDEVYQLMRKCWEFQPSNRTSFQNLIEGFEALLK
Chain of JAK2 (O60674 whole entry): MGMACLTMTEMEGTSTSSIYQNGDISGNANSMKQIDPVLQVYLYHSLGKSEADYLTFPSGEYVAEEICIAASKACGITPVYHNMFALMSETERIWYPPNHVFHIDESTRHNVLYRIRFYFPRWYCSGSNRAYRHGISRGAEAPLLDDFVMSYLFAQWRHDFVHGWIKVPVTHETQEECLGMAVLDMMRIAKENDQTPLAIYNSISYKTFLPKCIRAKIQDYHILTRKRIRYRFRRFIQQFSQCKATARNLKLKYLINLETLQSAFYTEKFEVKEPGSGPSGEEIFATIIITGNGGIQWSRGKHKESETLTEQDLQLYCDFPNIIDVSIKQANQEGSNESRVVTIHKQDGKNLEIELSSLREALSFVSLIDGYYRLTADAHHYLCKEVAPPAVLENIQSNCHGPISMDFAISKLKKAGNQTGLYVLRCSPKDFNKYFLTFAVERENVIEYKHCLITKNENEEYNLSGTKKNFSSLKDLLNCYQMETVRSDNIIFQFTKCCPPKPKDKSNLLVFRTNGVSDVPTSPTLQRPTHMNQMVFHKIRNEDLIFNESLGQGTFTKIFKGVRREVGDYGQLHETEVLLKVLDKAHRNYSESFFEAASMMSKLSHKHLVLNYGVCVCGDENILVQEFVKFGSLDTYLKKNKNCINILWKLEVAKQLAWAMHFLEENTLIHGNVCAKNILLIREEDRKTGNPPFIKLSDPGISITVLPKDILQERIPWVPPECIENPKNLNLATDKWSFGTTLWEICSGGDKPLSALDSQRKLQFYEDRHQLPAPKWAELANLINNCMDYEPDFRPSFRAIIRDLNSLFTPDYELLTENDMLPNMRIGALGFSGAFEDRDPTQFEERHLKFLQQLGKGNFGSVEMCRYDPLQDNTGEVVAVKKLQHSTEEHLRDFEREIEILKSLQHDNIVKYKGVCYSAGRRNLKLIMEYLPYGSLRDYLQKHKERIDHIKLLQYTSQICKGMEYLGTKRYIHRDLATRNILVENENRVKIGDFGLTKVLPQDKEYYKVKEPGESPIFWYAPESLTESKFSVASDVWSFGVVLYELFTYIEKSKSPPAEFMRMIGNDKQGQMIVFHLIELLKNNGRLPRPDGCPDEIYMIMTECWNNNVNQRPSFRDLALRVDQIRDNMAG

SMILES	Solubility at PH 7.4 (μmol) (Aqueous Solubility Assay)	Tall-1 IL2 pSTAT5 (pIC50) [1]	JAK 1 (pKi) (JAK1)	HLM Clin μL/min/mg [2]	JAK 2 (pKi) (JAK2)	JAK 3 (pKi) (JAK3)	IC50 ([1]; read-out: Tall-1 IL2 pSTAT5 (pIC50) (converted))	Ki (JAK1; read-out: JAK 1 (pKi) (converted))	Ki (JAK3; read-out: JAK 3 (pKi) (converted))
CCS(=O)(=O)N1[C@@H]2CCC[C@H]1C[C@H](N(C)c1nc(COC3COC3)c(F)c(Nc3cc(C)[nH]n3)n1)C2 [Compound 41, N2-((1R,3s,5S)-9-(ethylsulfonyl)-9-azabicyclo[3.3.1]nonan-3-yl)-5-fluoro-N2-methyl-N4-(5-methyl-1H-pyrazol-3-yl)-6-((oxetan-3-yloxy)methyl)pyrimidine-2,4-diamine]	D (D represents a value between 10 and 50)	A (A represents a pIC50 value ≥8.0)	A (A represents a pKi value ≥10 (Ki≤0.1 nM))	C (C represents a Clint value between 130 and 500)	A (A represents a pKi value ≥10 (Ki≤0.1 nM))	B (B represents a pKi value between 9 and 10 (Ki between 1 nM and 0.1 nM))	–	–	–
CCS(=O)(=O)N1[C@@H]2CCC[C@H]1C[C@H](N(C)c1nc(Nc3cc(C)[nH]n3)cc(C3CCCO3)n1)C2 (stereo partly drawn) [Compound 8, N^2-((1R,3s,5S)-9-(ethylsulfonyl)-9-azabicyclo[3.3.1]nonan-3-yl)-N2-methyl-N4-(5-methyl-1H-pyrazol-3-yl)-6-(tetrahydrofuran-2-yl)pyrimidine-2,4-diamine]	C (C represents a value between 50 and 250)	A (A represents a pIC50 value ≥8.0)	A (A represents a pKi value ≥10 (Ki≤0.1 nM))	A (A represents a Clint value between 1250 and 3000)	A (A represents a pKi value ≥10 (Ki≤0.1 nM))	B (B represents a pKi value between 9 and 10 (Ki between 1 nM and 0.1 nM))	–	–	–
COC(=O)N1[C@@H]2CCC[C@H]1C[C@H](N(C)c1nc(Nc3cc(C)[nH]n3)cc(O[C@@H]3CCOC3)n1)C2 [Compound 23]	–	–	–	–	A (A represents a pKi value ≥10 (Ki≤0.1 nM))	–	10 to 31.6 nM	0.1 to 1 nM	0.1 to 1 nM
CCS(=O)(=O)N1[C@@H]2CCC[C@H]1C[C@H](N(C)c1nc(CO[C@@H]3CCOC3)c(F)c(Nc3cc(C)[nH]n3)n1)C2 [Compound 43, N2-((1R,3s,5S)-9-(ethylsulfonyl)-9-azabicyclo[3.3.1]nonan-3-yl)-5-fluoro-N2-methyl-N4-(5-methyl-1H-pyrazol-3-yl)-6-((((R)-tetrahydrofuran-3-yl)oxy)methyl)pyrimidine-2,4-diamine]	B (B represents a value between 250 and 500)	A (A represents a pIC50 value ≥8.0)	B (B represents a pKi value between 9 and 10 (Ki between 1 nM and 0.1 nM))	C (C represents a Clint value between 130 and 500)	A (A represents a pKi value ≥10 (Ki≤0.1 nM))	B (B represents a pKi value between 9 and 10 (Ki between 1 nM and 0.1 nM))	–	–	–
CCS(=O)(=O)N1[C@@H]2CCC[C@H]1C[C@H](N(C)c1nc(CO[C@H]3CCOC3)c(F)c(Nc3cc(C)[nH]n3)n1)C2 [Compound 42, N2-((1R,3s,5S)-9-(ethylsulfonyl)-9-azabicyclo[3.3.1]nonan-3-yl)-5-fluoro-N2-methyl-N4-(5-methyl-1H-pyrazol-3-yl)-6-((((S)-tetrahydrofuran-3-yl)oxy)methyl)pyrimidine-2,4-diamine]	B (B represents a value between 250 and 500)	A (A represents a pIC50 value ≥8.0)	B (B represents a pKi value between 9 and 10 (Ki between 1 nM and 0.1 nM))	B (B represents a Clint value between 500 and 1250)	A (A represents a pKi value ≥10 (Ki≤0.1 nM))	B (B represents a pKi value between 9 and 10 (Ki between 1 nM and 0.1 nM))	–	–	–
